Results published in patent publication US10184115B2, “Mutated cellobiose dehydrogenase with increased substrate specificity” (DIRECTSENS GMBH, priority 2012, dated 2019).

Molecular target: T1, Myriococcum thermophilum cellobiose dehydrogenase (CDH, SEQ ID NO: 1) variant N721D (Thermothelomyces myriococcoides, UniProt A9XK88, N721D)
T1 sequence (A9XK88 22-828 N721D): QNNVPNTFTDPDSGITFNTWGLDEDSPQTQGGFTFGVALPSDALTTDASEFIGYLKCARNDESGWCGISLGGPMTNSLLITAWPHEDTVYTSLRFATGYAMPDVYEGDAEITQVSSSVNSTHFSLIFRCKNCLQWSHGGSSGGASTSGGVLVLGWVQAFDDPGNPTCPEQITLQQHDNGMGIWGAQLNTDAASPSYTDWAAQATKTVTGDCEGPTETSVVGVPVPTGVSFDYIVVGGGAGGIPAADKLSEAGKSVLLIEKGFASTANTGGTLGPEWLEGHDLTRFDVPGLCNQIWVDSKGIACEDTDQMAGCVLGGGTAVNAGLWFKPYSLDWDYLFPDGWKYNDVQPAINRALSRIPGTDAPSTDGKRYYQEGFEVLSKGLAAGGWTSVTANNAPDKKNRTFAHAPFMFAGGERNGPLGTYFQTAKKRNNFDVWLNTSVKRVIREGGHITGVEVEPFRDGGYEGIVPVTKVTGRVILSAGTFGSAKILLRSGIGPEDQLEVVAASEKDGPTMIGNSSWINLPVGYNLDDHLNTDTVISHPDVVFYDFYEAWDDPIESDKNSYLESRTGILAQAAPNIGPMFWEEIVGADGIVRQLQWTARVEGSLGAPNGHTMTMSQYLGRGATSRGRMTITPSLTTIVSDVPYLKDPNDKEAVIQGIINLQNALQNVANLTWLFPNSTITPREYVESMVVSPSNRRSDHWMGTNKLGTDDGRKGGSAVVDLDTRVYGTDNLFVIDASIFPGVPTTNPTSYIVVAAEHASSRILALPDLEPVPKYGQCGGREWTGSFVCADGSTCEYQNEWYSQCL
Assay: Steady-state kinetics, DCIP assay: M. thermophilum CDH N721D
Assay type: biochemical
Details: apparent, pH 4.5, 30° C.
Protocol: Enzyme activity was assayed at 30° C. using either the DCIP (Karapetyan et al., 2005 Journal of Biotechnology 121: 34-48) or cytochrome c (Canevascini et al., 1991, European Journal of Biochemistry 198: 43-52) as electron acceptor. […] Stock solutions of carbohydrates used for kinetic measurements were prepared in the respective buffer and allowed to stand overnight for mutarotation, while stock solutions of electron acceptors were prepared in water and immediately used. The reaction stoichiometry is 1 for the two-electron acceptor DCIP (1 mole of DCIP reduced per mole of carbohydrate oxidized), but 2 for the one-electron acceptor cytochrome c. Kinetic constants were calculated by fitting the observed data to the Henri-Michaelis-Menten equation or to the adapted model for substrate inhibition using nonlinear least-squares regression and the program SigmaPlot (Systat Software, San Jose, Calif., USA). […]
Recombinant wild-type CDH as well as variants were produced in 1 L baffled flasks. […] Increase in activity was monitored using the DCIP and the cytochrome c enzyme assays. […]
The sample was loaded on a 20 mL PHE Sepharose FF column (HR26/20) equilibrated with 50 mM Na-acetate buffer pH 5.5 containing 20% ammonium sulfate. […] Fractions were tested for CDH activity and pooled according to the highest Reinheitszahl (RZ, calculated from the absorbance ratio 420 nm/280 nm). […]

OC[C@H]1OC(O)[C@H](O)[C@@H](O)[C@@H]1O (some centres unmarked) [Glucose, glucose]
kcat: 1.9 s⁻¹
kcat/KM: 5.9 M⁻¹ s⁻¹
